Source: US11046716B2, “Beta-lactamase inhibitors” (priority 2015, dated 2021)

What was measured:
VIM-2 = molecular target: T1, VIM-2 (Escherichia coli, UniProt Q5U7L7); assay: β-lactamase enzyme inhibition assay, VIM-2 (nitrocefin substrate); format: biochemical; details: Class B; nitrocefin substrate, 486 nm; read-out: VIM-2
T1 construct: made in house; host or cells: E. coli BL21(DE3)
Procedure, shortened: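 IC50 reflects the inhibitor concentration cutting the initial nitrocefin hydrolysis rate by half, compared with control wells lacking inhibitor. Substrate was used at 100 μM final after a 15 min, 37 °C enzyme–inhibitor preincubation.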

OXA-48 = OXA-48 (UniProt Q6XEC0); assay: β-lactamase enzyme inhibition assay, Class D oxacillinase; format: biochemical; details: read-out: OXA-48
KPC-2 = molecular target: T2, KPC-2 (Klebsiella pneumoniae, UniProt Q9F663); assay: β-lactamase enzyme inhibition assay, KPC-2 (imipenem substrate); format: biochemical; details: Class A; imipenem substrate, 300 nm; read-out: KPC-2
T2 construct: made in house; host or cells: E. coli BL21(DE3)
Procedure, shortened: (§1)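 Native untagged enzymes expressed in E. coli BL21(DE3), purified by cation exchange and gel filtration. Inhibitor preincubated with enzyme 15 min at 37 °C; hydrolysis followed by absorbance: imipenem at 300 nm for KPC-2, cefotaxime at 260 nm for SHV-5. IC50 as concentration halving initial hydrolysis rate versus inhibitor-free wells.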

AmpC = molecular target: T3, AmpC (Enterobacter cloacae, UniProt P05364); assay: β-lactamase enzyme inhibition assay, p99 AmpC (nitrocefin substrate); format: biochemical
T3 construct: made in house; host or cells: E. coli BL21(DE3)
Procedure, shortened: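 Native untagged enzymes expressed in E. coli BL21(DE3), purified by cation exchange and gel filtration. Inhibitor preincubated with enzyme 15 min at 37 °C; hydrolysis followed by absorbance. IC50 as concentration halving initial hydrolysis rate versus inhibitor-free wells.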

[1] = system: P. aeruginosa expressing the Class B carbapenemase VIM-2; assay: Broth microdilution MIC assay with meropenem, P. aeruginosa VIM-2; format: cell-based; details: Fixed Mero (meropenem) 4 μg/mL; P. aerug. 2775 VIM-2
Procedure, shortened: (§2)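 Potentiation format: the β-lactam was held at 4 μg/ml while the test compound was serially diluted, and growth was scored visually after overnight (16-20 h) incubation at 37° C.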

[2] = system: K. pneumoniae producing the Class D carbapenemase OXA-48; assay: Broth microdilution MIC assay with meropenem, K. pneumoniae OXA-48; format: cell-based; details: Fixed Mero (meropenem) 4 μg/mL; K. p. 11978 OXA-48
Procedure, shortened: as §2

[3] = system: E. cloacae expressing the Class C P99; assay: Broth microdilution MIC assay with ceftazidime, E. cloacae P99; format: cell-based; details: Fixed CAZ (ceftazidime) 4 μg/mL; E. cl. 144200 p99 AmpC
Source text: To determine the ability of test compounds to potentiate the inhibition of the growth of bacterial strains that produce beta-lactamase enzymes in the presence of a β-lactam antibiotic, classic cell based broth microdilution MIC assays were employed. Six bacteria strains producing beta-lactamase enzymes were used: E. coli expressing the Class A Extended Spectrum Beta-Lactamase (ESBL) CTX-M-15, E. cloacae expressing the Class C P99, K. pneumoniae expressing the Class A carbapenemase KPC-2, P. aeruginosa expressing the Class B carbapenemase VIM-2, K. pneumoniae expressing the class A carbapenemase KPC-2 and the class B carbapenemase VIM-4, and K. pneumoniae producing the Class D carbapenemase OXA-48. The assay was conducted in Cation Adjusted Mueller Hinton Broth (CAMHB, BD #212322, BD Diagnostic Systems, Sparks, Md.). Bacteria strains were grown for 3-5 hours in CAMBH broth. Test compounds (Examples 1-94) were added to a microtiter plate in 2-fold serial dilutions in CAMHB in a final concentration range of 16 μg/mL to 0.125 μg/ml. An overlay of CAMHB containing a Beta-lactam was added to the compounds at a final static concentration of 4 μg/ml. […] In addition to the titration of test compounds the MICs of a panel of control beta-lactams is also tested to ensure the strains are behaving consistently from test to test. Once the test compound and antibiotics are added the plates can be inoculated according to CLSI broth microdilution method. After inoculation the plates are incubated for 16-20 hours at 37° C. then the Minimal Inhibitory Concentration (MIC) of the test compound is determined visually.
Using the methodology described above, examples of the current invention were evaluated for their ability to inhibit the growth of β-lactamase-producing bacteria in the presence of a β-lactam antibiotic.

[4] = system: K. pneumoniae expressing the Class A carbapenemase KPC-2; assay: Broth microdilution MIC assay with meropenem, K. pneumoniae KPC-2; format: cell-based; details: Fixed Mero (meropenem) 4 μg/mL; K. p. 156319 KPC-3
Procedure, shortened: as §2

[5] = system: E. coli expressing the Class A Extended Spectrum Beta-Lactamase (ESBL) CTX-M-15; assay: Broth microdilution MIC assay with ceftazidime, E. coli CTX-M-15; format: cell-based; details: Fixed CAZ (ceftazidime) 4 μg/mL; E. coli ESBL4 CTX-M-15
Procedure, shortened: as §2

SHV-5 = molecular target: T4, SHV-5 (Klebsiella pneumoniae, UniProt P0A3M1); assay: β-lactamase enzyme inhibition assay, SHV-5 (cefotaxime substrate); format: biochemical
T4 construct: made in house; host or cells: E. coli BL21(DE3)
Procedure, shortened: as §1

[6] = system: K. pneumoniae expressing the class A carbapenemase KPC-2 and the class B carbapenemase VIM-4; assay: Broth microdilution MIC assay with meropenem, K. pneumoniae KPC-2 and VIM-4; format: cell-based; details: Fixed Mero (meropenem) 4 μg/mL; K. p. A-1797 KPC-2 VIM-4
Procedure, shortened: as §2

T3 sequence (P05364 21-381): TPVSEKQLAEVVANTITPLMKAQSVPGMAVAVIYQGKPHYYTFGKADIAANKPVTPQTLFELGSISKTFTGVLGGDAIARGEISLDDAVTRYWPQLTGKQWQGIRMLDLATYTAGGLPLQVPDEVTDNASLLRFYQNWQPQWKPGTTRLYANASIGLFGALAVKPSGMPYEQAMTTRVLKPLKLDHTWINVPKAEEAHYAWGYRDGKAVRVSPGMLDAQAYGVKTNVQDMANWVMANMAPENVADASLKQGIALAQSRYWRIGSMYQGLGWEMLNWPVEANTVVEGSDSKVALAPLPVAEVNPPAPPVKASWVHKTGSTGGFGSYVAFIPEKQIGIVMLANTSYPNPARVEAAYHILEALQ
T4 sequence (P0A3M1 22-286): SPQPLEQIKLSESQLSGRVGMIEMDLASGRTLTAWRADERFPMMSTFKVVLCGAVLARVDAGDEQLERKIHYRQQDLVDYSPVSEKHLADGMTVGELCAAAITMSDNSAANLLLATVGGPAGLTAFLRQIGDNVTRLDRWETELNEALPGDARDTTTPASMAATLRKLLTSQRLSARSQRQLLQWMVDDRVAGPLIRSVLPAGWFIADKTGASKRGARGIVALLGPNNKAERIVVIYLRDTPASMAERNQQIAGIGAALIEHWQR
T2 sequence (Q9F663 25-293, looked up): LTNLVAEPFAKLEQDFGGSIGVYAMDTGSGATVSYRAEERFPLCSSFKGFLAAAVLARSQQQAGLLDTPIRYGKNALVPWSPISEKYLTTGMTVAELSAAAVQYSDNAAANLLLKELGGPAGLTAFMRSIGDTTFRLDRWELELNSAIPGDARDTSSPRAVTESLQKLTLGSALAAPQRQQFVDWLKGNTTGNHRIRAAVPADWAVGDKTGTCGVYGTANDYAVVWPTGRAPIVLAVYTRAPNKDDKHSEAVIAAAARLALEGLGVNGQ

O=C(Cc1nnn[nH]1)N[C@H]1Cc2cccc(C(=O)O)c2OB1O [Example 40, (R)-3-(2-(1H-tetrazol-5-yl)acetamido)-2-hydroxy-3,4-dihydro-2H-benzo[e][1,2]oxaborinine-8-carboxylic acid]
IC50 (VIM-2): 1000 to 10000 nM | IC50 (OXA-48): 100 to 1000 nM | IC50 (KPC-2): < 100 nM | IC50 (AmpC): < 100 nM | MIC (μg/mL) of Exemplary Compounds in presence of fixed β-lactams: P. aerug. 2775 VIM-2 [1]: B (B represents an MIC between 1 and 16 μg/mL inclusive) | MIC (μg/mL) of Exemplary Compounds in presence of fixed β-lactams: K. p. 11978 OXA-48 [2]: B (B represents an MIC between 1 and 16 μg/mL inclusive) | MIC (μg/mL) of Exemplary Compounds in presence of fixed β-lactams: E. cl. 144200 p99 AmpC [3]: C (C represents an MIC of <1 μg/mL) | MIC (μg/mL) of Exemplary Compounds in presence of fixed β-lactams: K. p. 156319 KPC-3 [4]: C (C represents an MIC of <1 μg/mL) | MIC (μg/mL) of Exemplary Compounds in presence of fixed β-lactams: E. coli ESBL4 CTX-M-15 [5]: C (C represents an MIC of <1 μg/mL) | IC50 (SHV-5): < 100 nM | MIC (μg/mL) of Exemplary Compounds in presence of fixed β-lactams: K. p. A-1797 KPC-2 VIM-4 [6]: B (B represents an MIC between 1 and 16 μg/mL inclusive)

O=C(Cc1nnnn1CCF)N[C@H]1Cc2cccc(C(=O)O)c2OB1O [Example 101, (R)-3-(2-(1-(2-fluoroethyl)-1H-tetrazol-5-yl)acetamido)-2-hydroxy-3,4-dihydro-2H-benzo[e][1,2]oxaborinine-8-carboxylic acid]
IC50 (VIM-2): 100 to 1000 nM | IC50 (OXA-48): < 100 nM | IC50 (KPC-2): < 100 nM | IC50 (AmpC): < 100 nM | MIC (μg/mL) of Exemplary Compounds in presence of fixed β-lactams: P. aerug. 2775 VIM-2 [1]: C (C represents an MIC of <1 μg/mL) | MIC (μg/mL) of Exemplary Compounds in presence of fixed β-lactams: K. p. 11978 OXA-48 [2]: C (C represents an MIC of <1 μg/mL) | MIC (μg/mL) of Exemplary Compounds in presence of fixed β-lactams: E. cl. 144200 p99 AmpC [3]: C (C represents an MIC of <1 μg/mL) | MIC (μg/mL) of Exemplary Compounds in presence of fixed β-lactams: K. p. 156319 KPC-3 [4]: B (B represents an MIC between 1 and 16 μg/mL inclusive) | MIC (μg/mL) of Exemplary Compounds in presence of fixed β-lactams: E. coli ESBL4 CTX-M-15 [5]: C (C represents an MIC of <1 μg/mL) | IC50 (SHV-5): < 100 nM | MIC (μg/mL) of Exemplary Compounds in presence of fixed β-lactams: K. p. A-1797 KPC-2 VIM-4 [6]: B (B represents an MIC between 1 and 16 μg/mL inclusive)

CC(C)NCc1cn(CC(=O)N[C@H]2Cc3cccc(C(=O)O)c3OB2O)nn1 [Example 4, (R)-2-hydroxy-3-(2-(4-((isopropylamino)methyl)-1H-1,2,3-triazol-1-yl)acetamido)-3,4-dihydro-2H-benzo[e][1,2]oxaborinine-8-carboxylic acid]
IC50 (VIM-2): < 100 nM | IC50 (OXA-48): < 100 nM | IC50 (KPC-2): 100 to 1000 nM | IC50 (AmpC): < 100 nM | MIC (μg/mL) of Exemplary Compounds in presence of fixed β-lactams: P. aerug. 2775 VIM-2 [1]: C (C represents an MIC of <1 μg/mL) | MIC (μg/mL) of Exemplary Compounds in presence of fixed β-lactams: K. p. 11978 OXA-48 [2]: B (B represents an MIC between 1 and 16 μg/mL inclusive) | MIC (μg/mL) of Exemplary Compounds in presence of fixed β-lactams: E. cl. 144200 p99 AmpC [3]: C (C represents an MIC of <1 μg/mL) | MIC (μg/mL) of Exemplary Compounds in presence of fixed β-lactams: K. p. 156319 KPC-3 [4]: B (B represents an MIC between 1 and 16 μg/mL inclusive) | MIC (μg/mL) of Exemplary Compounds in presence of fixed β-lactams: E. coli ESBL4 CTX-M-15 [5]: C (C represents an MIC of <1 μg/mL) | IC50 (SHV-5): 100 to 1000 nM | MIC (μg/mL) of Exemplary Compounds in presence of fixed β-lactams: K. p. A-1797 KPC-2 VIM-4 [6]: C (C represents an MIC of <1 μg/mL)
